# According to patent US20260184663A1, “INDENE COMPOUNDS, PHARMACEUTICAL COMPOSITIONS THEREOF, AND THEIR THERAPEUTIC APPLICATIONS” (NucMito Pharmaceuticals co. Ltd., priority 2022, published 2026):
# Experiments:
# Assay type in all cases: cell-based
# SW480 (colon cancer) = assay: Antiproliferative activity (CCK-8 cell viability), SW480; settings: Homo sapiens, 72 h, read-out: Antiproliferative activity in cancerous cells, SW480 (inhibition of cell growth); for inhibition at 3.3 µM: Compound concentration: 3.3 μM; for inhibition at 10 µM: Compound concentration: 10 μM; for inhibition at 30 µM: Compound concentration: 30 μM
# Method in brief: (§1)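 Cells were seeded at 2,000-5,000/well (HeLa in MEM, HepG2 and SW480 in DMEM, A549 in F-12K, all with 10% FBS) and treated with compound at 3.3, 10 or 30 μM for 72 h at 37° C. CCK-8 was added for 4 h, absorbance was read at 450 nm, and viability was expressed relative to DMSO-treated wells.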
# [1] = tested on: B16F10 (malignant melanoma); assay: Antiproliferative activity (CCK-8 cell viability), B16F10; settings: Mus musculus, 72 h, read-out: Antiproliferative activity in cancerous cells, B16F10 (inhibition of cell growth); for inhibition at 3.3 µM: B16-F10, Compound concentration: 3.3 μM; for inhibition at 10 µM: B16-F10, Compound concentration: 10 μM; for inhibition at 30 µM: B16-F10, Compound concentration: 30 μM
# Method in brief: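 Attached B16F10 cells in 96-well plates were incubated with compound at 37° C for 72 h, followed by 10 μL CCK-8 reagent per well and a further 4 h incubation. A multi-well plate reader measured absorbance at 450 nm. Percent viability across replicates was calculated against DMSO vehicle-treated cells.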
# HepG2 (liver cancer) = assay: Antiproliferative activity (CCK-8 cell viability), HepG2; settings: Homo sapiens, 72 h, read-out: Antiproliferative activity in cancerous cells, HepG2 (inhibition of cell growth); for inhibition at 3.3 µM: Compound concentration: 3.3 μM; for inhibition at 10 µM: Compound concentration: 10 μM; for inhibition at 30 µM: Compound concentration: 30 μM
# Method in brief: as §1
# [2] = tested on: A549 (lung adenocarcinoma); assay: Antiproliferative activity (CCK-8 cell viability), A549; settings: Homo sapiens, 72 h, read-out: Antiproliferative activity in cancerous cells, A549 (inhibition of cell growth); for inhibition at 3.3 µM: Compound concentration: 3.3 μM; for inhibition at 10 µM: Compound concentration: 10 μM; for inhibition at 30 µM: Compound concentration: 30 μM
# Method in brief: as §1
# [3] = tested on: A431 (epidermoid carcinoma); assay: Antiproliferative activity (CCK-8 cell viability), A431; settings: Homo sapiens, 72 h, read-out: Antiproliferative activity in cancerous cells, A431 (inhibition of cell growth); for inhibition at 3.3 µM: A-431, Compound concentration: 3.3 μM; for inhibition at 10 µM: A-431, Compound concentration: 10 μM; for inhibition at 30 µM: A-431, Compound concentration: 30 μM
# Method in brief: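 Cell viability of compound-treated A431 cells was measured with a Cell Counting Kit-8. Each well received 10 μL of CCK-8 after 72 h of compound exposure, followed by 4 h incubation at 37° C. and a 450 nm plate-reader measurement. Percent viability was calculated relative to DMSO controls across replicates.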
# HeLa (cervical cancer) = assay: Antiproliferative activity (CCK-8 cell viability), HeLa; settings: Homo sapiens, 72 h, read-out: Antiproliferative activity in cancerous cells, HELA (inhibition of cell growth); for inhibition at 3.3 µM: Compound concentration: 3.3 μM; for inhibition at 10 µM: Compound concentration: 10 μM; for inhibition at 30 µM: Compound concentration: 30 μM
# Method in brief: as §1
# [4] = tested on: MDA-MB-231 (breast cancer); assay: Antiproliferative activity (CCK-8 cell viability), MDA-MB-231; settings: Homo sapiens, 72 h, read-out: Antiproliferative activity in cancerous cells, MDA-MB-231 (inhibition of cell growth); for inhibition at 3.3 µM: Compound concentration: 3.3 μM; for inhibition at 10 µM: Compound concentration: 10 μM; for inhibition at 30 µM: Compound concentration: 30 μM
# Method in brief: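 In this CCK-8 viability assay, MDA-MB-231 cells maintained in Dulbecco's modified Eagle's medium containing 10% fetal bovine serum were placed in 96-well plates (2,000-5,000 cells/well) and treated with compound for 72 h at 37° C. A 4 h incubation with 10 μL CCK-8 followed, plates were read at 450 nm, and viability was expressed against DMSO vehicle wells across replicates.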
SMILES,inhibition at 3.3 µM (SW480 (colon cancer)) [%],inhibition at 10 µM (SW480 (colon cancer)) [%],inhibition at 30 µM (SW480 (colon cancer)) [%],inhibition at 3.3 µM [1] [%],inhibition at 10 µM [1] [%],inhibition at 30 µM [1] [%],inhibition at 3.3 µM (HepG2 (liver cancer)) [%],inhibition at 10 µM (HepG2 (liver cancer)) [%],inhibition at 30 µM (HepG2 (liver cancer)) [%],inhibition at 3.3 µM [2] [%],inhibition at 10 µM [2] [%],inhibition at 30 µM [2] [%],inhibition at 3.3 µM [3] [%],inhibition at 10 µM [3] [%],inhibition at 30 µM [3] [%],inhibition at 3.3 µM (HeLa (cervical cancer)) [%],inhibition at 10 µM (HeLa (cervical cancer)) [%],inhibition at 30 µM (HeLa (cervical cancer)) [%],inhibition at 3.3 µM [4] [%],inhibition at 10 µM [4] [%],further results
"CC1=C(CC(=O)O)c2cc(Br)ccc2/C1=C/c1ccc(Oc2ccc(Cl)cc2)cc1 [E27, (E)-2-(5-Bromo-1-(4-(4-chlorophenoxy)benzylidene)-2-methyl-1H-inden-3-yl)acetic acid]",< 30,30 to 50,≥ 50,≥ 50,≥ 50,≥ 50,< 30,≥ 50,≥ 50,< 30,≥ 50,≥ 50,≥ 50,≥ 50,≥ 50,≥ 50,≥ 50,≥ 50,≥ 50,≥ 50,inhibition at 30 µM [4]: ≥ 50%
"CC1=C(CC(=O)O)c2cc(Cl)c(Cl)cc2/C1=C/c1ccc(Oc2ccc(F)cc2)cc1 [E28, (E)-2-(5,6-Dichloro-1-(4-(4-fluorophenoxy)benzylidene)-2-methyl-1H-inden-3-yl)acetic acid]",< 30,≥ 50,≥ 50,≥ 50,≥ 50,≥ 50,≥ 50,≥ 50,≥ 50,≥ 50,≥ 50,≥ 50,30 to 50,≥ 50,≥ 50,≥ 50,≥ 50,≥ 50,≥ 50,≥ 50,inhibition at 30 µM [4]: ≥ 50%
"CC1=C(CC(=O)O)c2cc(Cl)ccc2/C1=C/c1ccc(Oc2ccc(F)c(F)c2)cc1 [E29, (E)-2-(5-Chloro-1-(4-(3,4-difluorophenoxy)benzylidene)-2-methyl-1H-inden-3-yl)acetic acid]",< 30,≥ 50,≥ 50,≥ 50,≥ 50,≥ 50,< 30,≥ 50,≥ 50,< 30,≥ 50,≥ 50,< 30,30 to 50,≥ 50,≥ 50,≥ 50,≥ 50,≥ 50,≥ 50,inhibition at 30 µM [4]: ≥ 50%
"CC1=C(CC(=O)O)c2cc(Cl)ccc2/C1=C/c1ccc(Oc2ccc(C(C)C)cc2)cc1 [E30, (E)-2-(5-Chloro-1-(4-(4-isopropylphenoxy)benzylidene)-2-methyl-1H-inden-3-yl)acetic acid]",≥ 50,≥ 50,≥ 50,≥ 50,≥ 50,≥ 50,30 to 50,≥ 50,≥ 50,< 30,≥ 50,≥ 50,< 30,≥ 50,≥ 50,≥ 50,≥ 50,≥ 50,≥ 50,≥ 50,inhibition at 30 µM [4]: ≥ 50%
"CCc1ccc(Oc2ccc(/C=C3\C(C)=C(CC(=O)O)c4cc(Cl)ccc43)cc2)cc1 [E31, (E)-2-(5-Chloro-1-(4-(4-ethylphenoxy)benzylidene)-2-methyl-1H-inden-3-yl)acetic acid]",30 to 50,30 to 50,≥ 50,30 to 50,≥ 50,≥ 50,< 30,≥ 50,≥ 50,≥ 50,≥ 50,≥ 50,≥ 50,≥ 50,≥ 50,≥ 50,≥ 50,≥ 50,≥ 50,≥ 50,inhibition at 30 µM [4]: ≥ 50%
"CC1=C(CC(=O)O)c2cc(Br)ccc2/C1=C/c1ccc(Oc2ccc(F)cc2)cc1 [E32, (E)-2-(5-Bromo-1-(4-(4-fluorophenoxy)benzylidene)-2-methyl-1H-inden-3-yl)acetic acid]",30 to 50,≥ 50,≥ 50,≥ 50,≥ 50,≥ 50,< 30,≥ 50,≥ 50,30 to 50,≥ 50,≥ 50,≥ 50,≥ 50,≥ 50,≥ 50,≥ 50,≥ 50,≥ 50,≥ 50,inhibition at 30 µM [4]: ≥ 50%
"CC1=C(CC(=O)O)c2c(Cl)cc(Cl)cc2/C1=C/c1ccc(Oc2ccc(F)cc2)cc1 [E33, (E)-2-(4,6-Dichloro-1-(4-(4-fluorophenoxy)benzylidene)-2-methyl-1H-inden-3-yl)acetic acid]",< 30,30 to 50,≥ 50,≥ 50,≥ 50,≥ 50,< 30,≥ 50,≥ 50,< 30,≥ 50,≥ 50,≥ 50,≥ 50,≥ 50,30 to 50,≥ 50,≥ 50,< 30,≥ 50,inhibition at 30 µM [4]: ≥ 50%
